# Test: Human HepG2 cell viability assay in 384 well format
# Assay type: toxicity, cell-based
# Design: dose 125 nL, time 70.5 hour; cytotoxicity at 70.5 h: concentration not given beside the values
# Settings: HepG2 cells, read-out: Inhibition
row,SMILES,cytotoxicity at 70.5 h
1,Cc1cccc(C)c1OC1CN(C(=O)C2CCN(C(=O)N(C)C)CC2)C1,29.8%
2,Cn1cnc2c1CCN(Cc1nc(Cc3ccccc3)no1)C2,-3.21%
3,CN(C)C1Cc2ccccc2N(S(=O)(=O)c2ccccc2C#N)C1 (stereo not drawn),34.1%
4,N#Cc1ccc(C(=O)N2CC[C@H]3[C@H]2CCN3CC2CCOCC2)cc1,12.2%
5,O=C(CN1CC(c2nc(-c3cccs3)no2)C1)NCC1CCCO1 (stereo not drawn),-2.94%
6,COc1c(CNC2(c3noc(C)n3)CCC2)c(C)nn1C,-7.32%
7,COc1ccsc1C(=O)NC1CCN(c2ccc(C#N)cc2)CC1,-5.67%
8,CCN1CCCC12CCN(C(=O)c1ccsc1)CC2,-7.76%
9,CC(C)N1CCC(Cc2cnc(-c3cccc(C(=O)O)c3)cn2)C1 (stereo not drawn),-19.1%
10,Cn1nnnc1SCCNC(=O)C1CCN(C(=O)C2CCCC2)CC1,-5.48%
11,CCc1noc(C)c1C(=O)N(C)Cc1ncc(C)c(OC)c1C,-30.2%
12,COc1ccccc1CNC(=O)CN(C)C(C)c1ccon1 (stereo not drawn),-18.5%
13,c1ccn2cc(CN3CCCC(c4ccn[nH]4)C3)nc2c1 (stereo not drawn),25.3%
14,O=C(Nc1cccnc1)[C@H]1C[C@@H]2CCN(Cc3nccs3)C[C@@H]2O1,-15.1%
15,Cc1ccc(N(CC(=O)c2ccc(Br)cc2)C2=NCCCCC2)cc1,16.7%
16,O=C(CCCn1nnc(-c2ccc(F)cc2)n1)N1CCOCC(CO)C1 (stereo not drawn),23.7%
17,COC(=O)[C@H](CSC)Nc1nc(C2CCCC2)nc2c1cnn2C,-8.48%
18,O=C(c1ccoc1)N1CCCN(CC2CCOc3ccccc3C2)CC1 (stereo not drawn),18.3%
19,COCCNC(=O)c1ccc2c(=O)n3c(nc2c1)CCN(C)CC3,7.41%
20,COC(=O)C(CNC(=O)Nc1nncs1)Cc1ccc(O)cc1 (stereo not drawn),-2.82%
21,CCn1cc(CN2CCCN(C(=O)C3(C#N)CCCCC3)CC2)cn1,17.8%
22,Fc1cnc(NCC2Cn3nnc(-c4ccccc4)c3CO2)nc1 (stereo not drawn),24.4%
23,Cc1ncncc1-c1ccnc(N(C)C)n1,-1.27%

row,SMILES,cytotoxicity at 70.5 h
1,COCC(=O)N(C)Cc1nc(N2CCCC2)ncc1-c1ccncc1,13.6%
2,Cc1ccc2c(cnn2CCC(=O)NCc2csc(C3CC3)n2)c1,22.8%
3,COCc1n[nH]/c(=N\C(=O)c2c3c(nc4onc(C)c24)CCC3)s1,-3.26%
4,Cc1cc(F)c(S(=O)(=O)NCc2ccnc(N(C)C)n2)cc1F,29.1%
5,Cn1cc(C2CCCN2C(=O)COC2CCCCC2)cn1 (stereo not drawn),-11.1%
6,COCCN1CCC2(CCCN(Cc3ccoc3)C2)C1=O (stereo not drawn),12.2%
7,CS(=O)(=O)N1CCN(Cc2csc(-c3ncccn3)n2)CC1,15.5%
8,CC(CS(C)(=O)=O)NCc1cc(Cl)ccc1F (stereo not drawn),19.9%
9,Cc1cc(C)n(CCN2CCC(N(C)Cc3noc(C4CC4)n3)C2)n1 (stereo not drawn),-4.52%
10,CN(C)C(=O)COC1COC2(CCN(c3ncccn3)CC2)C1 (stereo not drawn),-7.32%
11,CN(C)S(=O)(=O)N1CCC(Cn2cccn2)CC1,-7.21%
12,Cc1ccc(N2CCCC(NCc3ccc(C)o3)C2)nn1 (stereo not drawn),-7.71%
13,COc1cc(N2CCCC3(CCN(c4cccnc4)C3=O)C2)ncn1 (stereo not drawn),19.9%
14,Cc1nc(CO[C@H]2CN(C(=O)c3cccnc3)[C@@H]3COC[C@H]23)cs1,-6.99%
15,O=C1CNc2ncnc(N3CCN(c4ccccc4F)CC3)c2N1,16.1%
16,Cc1ccc2[nH]c(C(=O)N3CCC4(CC3)C(=O)NCCN4C)nc2c1,-6.83%
17,CCS(=O)(=O)NCc1cc(Br)c(OC)c(OC)c1,-8.56%
18,Cc1ccn(CC(=O)NCCCOc2ccccc2F)c(=O)c1,-7.65%
19,O=C(C1CCOCC1)N1CCc2ncnc(-c3ccc(F)cc3)c2CC1,-11.3%
20,Cn1cc(CN2CCCC23CCN(S(C)(=O)=O)CC3)cn1,-2.11%
21,Cc1ccc(O)c(CN2CCn3nc(C(=O)N4CCCC4)cc3C2)n1,0.113%
22,Cc1n[nH]c(C2CN(CC(=O)NCc3ccco3)CCO2)n1 (stereo not drawn),15.9%
23,Cc1csc(N2CCC(CCN3CCCC3=O)CC2)n1,-14.3%

row,SMILES,cytotoxicity at 70.5 h
1,CC(=O)N1CCCC1C(=O)NCCOc1cc(C)cc(C)c1 (stereo not drawn),-30.3%
2,CC(C)[C@@H]1CN(S(=O)(=O)Cc2ccccc2)C[C@H]1NS(=O)(=O)N(C)C,-2.27%
3,CC1=Nc2c(c(=O)[nH]n2C(C)C)C(c2cccs2)S1 (stereo not drawn),-8.68%
4,CN(C)C(=O)[C@@]12CCO[C@@H]1CCN(Cc1ccc3c(c1)OCO3)C2,1.17%
5,Cc1ccc(NC2CCN(C(=O)c3ccc(F)cc3Cl)CC2)nn1,-3.69%
6,COCCn1/c(=N\C(=O)CN(C)S(C)(=O)=O)sc2cccc(F)c21,20.2%
7,Cc1ccc2c(CC(=O)N3C[C@@H](O)[C@H](N(C)C)C3)coc2c1,-5.65%
8,Cc1cc(C)cc(CN2C[C@@H]3OCCN(CC(=O)N(C)C)[C@@H]3C2)c1,-0.77%
9,CN(C(=O)Cc1coc(-c2ccccc2)n1)C1(C#N)CCC1,1.14%
10,Cc1cc2cccc(C(=O)N3CCOC4(CNCCOC4)C3)c2o1 (stereo not drawn),32.7%
11,Cc1nnc(C(C)N2CCN(Cc3ccc(C(F)(F)F)cc3)CC2)o1 (stereo not drawn),-1.82%
12,COCCNc1ccc(CNCc2cnc3nc(C)cc(C)n23)cc1,-9.55%
13,CN(CCCc1nccn1C)C(=O)C1CCN(C(=O)C2CCCC2)CC1,4.09%
14,CCn1ncc2c1CN(C(=O)c1cscn1)CC2COC (stereo not drawn),-7.98%
15,O=C(COCCc1ccccc1)N1CCCC(n2cccn2)C1 (stereo not drawn),-6.79%
16,CS(=O)(=O)N1CC[C@H]2O[C@H](C(=O)NCc3cccnc3)CC[C@H]21,0.629%
17,CC1CCN(c2nc(O)cc(C3CC(=O)N(C4CCCCC4)C3)n2)CC1 (stereo not drawn),-8.25%
18,COc1ccc(-c2nc(CN3CCCS3(=O)=O)co2)cc1,14.5%
19,Cc1oc(C(=O)O)cc1S(=O)(=O)Nc1cccc(Cl)c1F,-7.29%
20,CCc1cc(CNC(=O)C2CCCN(C(=O)NCC(C)C)C2)[nH]n1 (stereo not drawn),-11.9%
21,CC(C)(C)c1cc(NC(=O)C2COCCO2)n(-c2ccccn2)n1 (stereo not drawn),-0.749%
22,Cc1nc(NC2CCOCC2)cc(C2CCN2S(C)(=O)=O)n1 (stereo not drawn),-6.12%
23,Cn1ccnc1-c1cn(Cc2cn3c(n2)SCC3)nn1,-5.95%

row,SMILES,cytotoxicity at 70.5 h
1,CCOC(C)c1nccn1Cc1c(C)noc1C (stereo not drawn),-2.96%
2,CC(=O)NCCOc1c(C)cccc1C,-4.39%
3,COCCNC(=O)[C@H]1C[C@@H]2CCN(c3nncs3)C[C@H]2O1,-4.17%
4,CCc1nnc(SCC(=O)N2CCc3[nH]nc(C4CCC4)c3C2)o1,-2.31%
5,COc1cc(CNC(C)Cn2cccn2)cc(OC)c1OC (stereo not drawn),-7.54%
6,CN(C(=O)c1ccccc1NCC(=O)O)C(C1CC1)C1CC1,-10.9%
7,CC(c1nc(C2CC2)no1)N1CCN(Cc2cccc(F)c2F)CC1 (stereo not drawn),-10.5%
8,O=C(c1sccc1-n1cnnn1)N1CCCCC1,-6.17%
9,Cc1cc(C)n2c(CNCCNc3ccccc3)cnc2n1,-1.23%
10,CCCN(CCC)c1ncc(S(=O)(=O)c2ccc(OC)cc2)c(N)n1,-9.23%
11,NC(=O)c1nc(CC(=O)Nc2cccc(C(F)(F)F)c2)no1,0.00692%
12,CCC(C(=O)N1CCCN(CCN(C)C)CC1)N1CCCC1=O (stereo not drawn),0.544%
13,C/C(Cl)=C/CNC(=O)[C@H]1CC[C@]2(CC1)CN(C)C(=O)c1ccccc1O2,-6.71%
14,COc1cc(CNCc2ccnc(N3CCCC3)c2)cc(OC)c1,1.37%
15,COc1ccc(Cl)cc1CN(CC(N)=O)C(C)C,-4.98%
16,COC(=O)c1cccc(-c2nc(CC3CCN(C)CC3)no2)c1,-3.78%
17,COc1ccc(CN(C)[C@@H]2COC[C@H]2c2ccc(F)cc2)cc1,-10.1%
18,O=C(CCCc1ccccn1)N1CCOc2ccc(F)cc21,1.36%
19,Cc1c(C(=O)N2CCOCC2)nnn1-c1ccc2ncccc2c1,-6.04%
20,Cc1cccc(CCC(=O)NCC2CCCN2c2cccnn2)c1 (stereo not drawn),5.29%
21,CCNC(=O)CCS(=O)(=O)Cc1ccn(-c2cccc(F)c2)n1,2.48%
22,COc1cc2cc(C(=O)O)n(C)c2cc1OC,-14.4%
23,COCCOc1ccnc(-c2noc([C@@H]3CCCN3C(C)C)n2)c1,-5.66%

row,SMILES,cytotoxicity at 70.5 h
1,Cc1cn2c(n1)CCC(NC(=O)c1ccc(CS(C)(=O)=O)cc1)C2 (stereo not drawn),-1.89%
2,Cc1nc(CC(=O)N2CCOC(c3nc(C(C)(C)C)n[nH]3)C2)cs1 (stereo not drawn),20.6%
3,COc1ncc(CN2CCC3(CCNC(=O)CC3)CC2)cn1,4.98%
4,O=C(CN1CCCC1=O)N1CCC(O)(Cn2ccc3ccncc32)CC1,-5.71%
5,O=C(O)CC1CN(Cc2ccccc2)CCO1 (stereo not drawn),-0.381%
6,c1ccc(COC2CCN(c3cncc(-n4cccn4)n3)CC2)cc1,-9.06%
7,Cc1ccc(S(=O)(=O)NC(=O)c2cc(S(C)(=O)=O)ccc2C)s1,-0.802%
8,Cc1cc(C)n2nc(CC(=O)N3CC[C@H]4NCCC[C@]4(CO)C3)nc2n1,-3.3%
9,O=C(CN1CCCC(c2ccn[nH]2)C1)Nc1nc2c(s1)CCC2 (stereo not drawn),-2.76%
10,O=C(Nc1nc2c(s1)CNCC2)C1CC1,26.7%
11,CCC(C)(C)C(=O)Nc1ccc2ccn(CC(=O)NC)c2c1,-0.594%
12,Cc1cccnc1CN1CCCCC1c1ccn2ccnc2n1 (stereo not drawn),-4.81%
13,CCc1noc(CN(CCC2CCCCC2)CC(N)=O)n1,-14.6%
14,Cc1cc(C(=O)NC2(C#N)CCSCC2)n(C)n1,-5.82%
15,CC(C)CN1CC(c2nc(-c3ccsc3)c[nH]2)CC1=O (stereo not drawn),-2.45%
16,CCn1ccnc1CN1CCN(Cc2cccnc2)CC1C (stereo not drawn),7.86%
17,Cc1n[nH]c(C)c1NC(=O)CN1CCc2c(nc(C3CC3)n2C)C1,17.7%
18,CCNc1ncc(C(=O)N(C)CCc2nc3cc(Cl)ccc3[nH]2)cn1,-16.7%
19,CCN1CCN(C2CCN(CCOc3ccc(F)cc3)CC2)C1=O,-11.7%
20,Cc1nc(S(=O)(=O)CCn2cccn2)n(C2CCCC2)c1C,10.5%
21,O=C(c1ccco1)N1CC[C@H]2[C@H]1CCN2CC1CCOCC1,5.37%

# From ChEMBL document CHEMBL3507680, “University of Dundee, Gates Library screen for HepG2 cell viability”
